Organism: Rattus norvegicus
Assay: DrugMatrix - Regimen: Daily Repeat
Format: toxicity, organism-based, Sprague-Dawley
Parameters: regimen Daily Repeat, gender Male, age 6-8 weeks
Details: in vivo, po, route oral GAVAGE, vehicle 100 % WATER; for ABSOLUTE BASOPHIL / ABSOLUTE EOSINOPHIL / ABSOLUTE LYMPHOCYTE / ABSOLUTE MONOCYTE / ABSOLUTE SEGMENTED NEUTROPHIL / BASOPHIL / EOSINOPHIL / ERYTHROCYTE COUNT / HEMATOCRIT / HEMOGLOBIN / LEUKOCYTE COUNT / LYMPHOCYTE / MEAN CORPUSCULAR HEMOGLOBIN / MEAN CORPUSCULAR HEMOGLOBIN CONCENTRATION / MEAN CORPUSCULAR VOLUME / MONOCYTE / NEUTROPHIL / NUCLEATED RED BLOOD CELLS / PLATELET COUNT: tissue Blood; for ALANINE AMINOTRANSFERASE / ALBUMIN / ALKALINE PHOSPHATASE / ASPARTATE AMINOTRANSFERASE / BLOOD UREA NITROGEN / CARBON DIOXIDE / CHLORIDE / CHOLESTEROL / CREATINE PHOSPHOKINASE / CREATININE / GLUCOSE / LACTATE DEHYDROGENASE / LIPASE / PHOSPHORUS / POTASSIUM / SODIUM / TOTAL BILIRUBIN / TOTAL PROTEIN / URIC ACID: tissue Plasma
[1] = 0 mg/kg, 72 h, dose level Control, time 3 day
[2] = 0 mg/kg, 120 h, dose level Control, time 5 day
[3] = 60 mg/kg, 72 h, dose level Low, time 3 day
[4] = 60 mg/kg, 120 h, dose level Low, time 5 day

`CC(CCc1ccccc1)NCC(O)c1ccc(O)c(C(N)=O)c1` (configuration not stated) [LABETALOL] was tested, and the “ABSOLUTE BASOPHIL” value [1] was 0 CELLS/uL, the “ABSOLUTE EOSINOPHIL” value [1] was 168.33 CELLS/uL and the “ABSOLUTE LYMPHOCYTE” value [1] was 13654.17 CELLS/uL. For the same compound, the “ABSOLUTE MONOCYTE” value [1] was 121 CELLS/uL, the “ABSOLUTE SEGMENTED NEUTROPHIL” value [1] was 1223.17 CELLS/uL and the BASOPHIL [1] was 0%. For the same compound, the EOSINOPHIL [1] was 1.17%, the “ERYTHROCYTE COUNT” value [1] was 5.7 x10E6/uL and the HEMATOCRIT [1] was 35.33%. The HEMOGLOBIN [1] was 13.97 G/DL, the “LEUKOCYTE COUNT” value [1] was 15.17 x10E3/uL and the LYMPHOCYTE [1] was 89.83%. The “MEAN CORPUSCULAR HEMOGLOBIN” value [1] was 24.53 pg, the “MEAN CORPUSCULAR HEMOGLOBIN CONCENTRATION” value [1] was 39.53 G/DL and the “MEAN CORPUSCULAR VOLUME” value [1] was 62.05 fL. For the same compound, the MONOCYTE [1] was 0.83%, the NEUTROPHIL [1] was 8.17% and the “NUCLEATED RED BLOOD CELLS” value [1] was 0 /100WBC. For the same compound, the “PLATELET COUNT” value [1] was 1312.17 x10E3/uL, the “ALANINE AMINOTRANSFERASE” value [1] was 50.83 u/L and the ALBUMIN [1] was 4.18 G/DL. The “ALKALINE PHOSPHATASE” value [1] was 334.17 u/L, the “ASPARTATE AMINOTRANSFERASE” value [1] was 82.17 u/L and the “BLOOD UREA NITROGEN” value [1] was 15.5 mg/dL. The “CARBON DIOXIDE” value [1] was 31.33 mmol/L, the CHLORIDE [1] was 99.83 MEQ/L and the CHOLESTEROL [1] was 76 mg/dL. For the same compound, the “CREATINE PHOSPHOKINASE” value [1] was 272.17 u/L, the CREATININE [1] was 0.17 mg/dL and the GLUCOSE [1] was 143 mg/dL. For the same compound, the “LACTATE DEHYDROGENASE” value [1] was 157.5 u/L, the LIPASE [1] was 9.33 u/L and the PHOSPHORUS [1] was 12.18 mg/dL. For the same compound, the POTASSIUM [1] was 6.78 MEQ/L, the SODIUM [1] was 143.9 MEQ/L and the “TOTAL BILIRUBIN” value [1] was 0.22 mg/dL. For the same compound, the “TOTAL PROTEIN” value [1] was 5.85 G/DL, the “URIC ACID” value [1] was 1.7 mg/dL and the “ABSOLUTE BASOPHIL” value [2] was 0 CELLS/uL. The “ABSOLUTE EOSINOPHIL” value [2] was 0 CELLS/uL, the “ABSOLUTE LYMPHOCYTE” value [2] was 13539.33 CELLS/uL and the “ABSOLUTE MONOCYTE” value [2] was 177.67 CELLS/uL. For the same compound, the “ABSOLUTE SEGMENTED NEUTROPHIL” value [2] was 2116.33 CELLS/uL, the BASOPHIL [2] was 0% and the EOSINOPHIL [2] was 0%. The “ERYTHROCYTE COUNT” value [2] was 5.78 x10E6/uL, the HEMATOCRIT [2] was 36.13% and the HEMOGLOBIN [2] was 14.1 G/DL. For the same compound, the “LEUKOCYTE COUNT” value [2] was 15.83 x10E3/uL, the LYMPHOCYTE [2] was 85.83% and the “MEAN CORPUSCULAR HEMOGLOBIN” value [2] was 24.42 pg. The “MEAN CORPUSCULAR HEMOGLOBIN CONCENTRATION” value [2] was 39 G/DL, the “MEAN CORPUSCULAR VOLUME” value [2] was 62.55 fL and the MONOCYTE [2] was 0.83%. For the same compound, the NEUTROPHIL [2] was 13.33%, the “NUCLEATED RED BLOOD CELLS” value [2] was 0.17 /100WBC and the “PLATELET COUNT” value [2] was 1281.17 x10E3/uL. For the same compound, the “ALANINE AMINOTRANSFERASE” value [2] was 55.5 u/L, the ALBUMIN [2] was 4.22 G/DL and the “ALKALINE PHOSPHATASE” value [2] was 345 u/L. For the same compound, the “ASPARTATE AMINOTRANSFERASE” value [2] was 92.5 u/L, the “BLOOD UREA NITROGEN” value [2] was 16.5 mg/dL and the “CARBON DIOXIDE” value [2] was 26.5 mmol/L. The CHLORIDE [2] was 103.5 MEQ/L, the CHOLESTEROL [2] was 78.5 mg/dL and the “CREATINE PHOSPHOKINASE” value [2] was 381.5 u/L. For the same compound, the CREATININE [2] was 0.21 mg/dL, the GLUCOSE [2] was 161.83 mg/dL and the “LACTATE DEHYDROGENASE” value [2] was 487.5 u/L. For the same compound, the LIPASE [2] was 10.17 u/L, the PHOSPHORUS [2] was 11.83 mg/dL and the POTASSIUM [2] was 6.4 MEQ/L. The SODIUM [2] was 146.95 MEQ/L, the “TOTAL BILIRUBIN” value [2] was 0.22 mg/dL and the “TOTAL PROTEIN” value [2] was 6.22 G/DL. For the same compound, the “URIC ACID” value [2] was 1.83 mg/dL, the “ABSOLUTE BASOPHIL” value [3] was 0 CELLS/uL and the “ABSOLUTE EOSINOPHIL” value [3] was 201.33 CELLS/uL. The “ABSOLUTE LYMPHOCYTE” value [3] was 14909.33 CELLS/uL, the “ABSOLUTE MONOCYTE” value [3] was 67 CELLS/uL and the “ABSOLUTE SEGMENTED NEUTROPHIL” value [3] was 1589 CELLS/uL. The BASOPHIL [3] was 0%, the EOSINOPHIL [3] was 1.33% and the “ERYTHROCYTE COUNT” value [3] was 5.26 x10E6/uL. For the same compound, the HEMATOCRIT [3] was 33.47%, the HEMOGLOBIN [3] was 13 G/DL and the “LEUKOCYTE COUNT” value [3] was 16.77 x10E3/uL. The LYMPHOCYTE [3] was 89.33%, the “MEAN CORPUSCULAR HEMOGLOBIN” value [3] was 24.77 pg and the “MEAN CORPUSCULAR HEMOGLOBIN CONCENTRATION” value [3] was 38.9 G/DL. The “MEAN CORPUSCULAR VOLUME” value [3] was 63.63 fL, the MONOCYTE [3] was 0.33% and the NEUTROPHIL [3] was 9%. For the same compound, the “NUCLEATED RED BLOOD CELLS” value [3] was 0 /100WBC, the “PLATELET COUNT” value [3] was 1299.67 x10E3/uL and the “ALANINE AMINOTRANSFERASE” value [3] was 51.67 u/L. For the same compound, the ALBUMIN [3] was 4.23 G/DL, the “ALKALINE PHOSPHATASE” value [3] was 301.67 u/L and the “ASPARTATE AMINOTRANSFERASE” value [3] was 83.67 u/L. The “BLOOD UREA NITROGEN” value [3] was 14.33 mg/dL, the “CARBON DIOXIDE” value [3] was 31.67 mmol/L and the CHLORIDE [3] was 98.67 MEQ/L. For the same compound, the CHOLESTEROL [3] was 81.33 mg/dL, the “CREATINE PHOSPHOKINASE” value [3] was 278 u/L and the CREATININE [3] was 0.27 mg/dL. For the same compound, the GLUCOSE [3] was 142.33 mg/dL, the “LACTATE DEHYDROGENASE” value [3] was 160 u/L and the LIPASE [3] was 9.33 u/L. The PHOSPHORUS [3] was 12.9 mg/dL, the POTASSIUM [3] was 6.47 MEQ/L and the SODIUM [3] was 145.3 MEQ/L. For the same compound, the “TOTAL BILIRUBIN” value [3] was 0.2 mg/dL, the “TOTAL PROTEIN” value [3] was 5.97 G/DL and the “URIC ACID” value [3] was 1.7 mg/dL. The “ABSOLUTE BASOPHIL” value [4] was 0 CELLS/uL, the “ABSOLUTE EOSINOPHIL” value [4] was 0 CELLS/uL and the “ABSOLUTE LYMPHOCYTE” value [4] was 14854.33 CELLS/uL. The “ABSOLUTE MONOCYTE” value [4] was 209.33 CELLS/uL, the “ABSOLUTE SEGMENTED NEUTROPHIL” value [4] was 1369.67 CELLS/uL and the BASOPHIL [4] was 0%. For the same compound, the EOSINOPHIL [4] was 0%, the “ERYTHROCYTE COUNT” value [4] was 5.65 x10E6/uL and the HEMATOCRIT [4] was 34.93%. The HEMOGLOBIN [4] was 13.63 G/DL, the “LEUKOCYTE COUNT” value [4] was 16.43 x10E3/uL and the LYMPHOCYTE [4] was 90.33%. The “MEAN CORPUSCULAR HEMOGLOBIN” value [4] was 24.17 pg, the “MEAN CORPUSCULAR HEMOGLOBIN CONCENTRATION” value [4] was 39.03 G/DL and the “MEAN CORPUSCULAR VOLUME” value [4] was 61.87 fL. The MONOCYTE [4] was 1.33%, the NEUTROPHIL [4] was 8.33% and the “NUCLEATED RED BLOOD CELLS” value [4] was 0 /100WBC. The “PLATELET COUNT” value [4] was 1103 x10E3/uL, the “ALANINE AMINOTRANSFERASE” value [4] was 59 u/L and the ALBUMIN [4] was 4.03 G/DL. For the same compound, the “ALKALINE PHOSPHATASE” value [4] was 331.33 u/L, the “ASPARTATE AMINOTRANSFERASE” value [4] was 90.67 u/L and the “BLOOD UREA NITROGEN” value [4] was 16.67 mg/dL. For the same compound, the “CARBON DIOXIDE” value [4] was 27.33 mmol/L, the CHLORIDE [4] was 100.67 MEQ/L and the CHOLESTEROL [4] was 96.67 mg/dL. For the same compound, the “CREATINE PHOSPHOKINASE” value [4] was 354.33 u/L, the CREATININE [4] was 0.23 mg/dL and the GLUCOSE [4] was 144 mg/dL. The “LACTATE DEHYDROGENASE” value [4] was 305.33 u/L, the LIPASE [4] was 9.33 u/L and the PHOSPHORUS [4] was 12.57 mg/dL. For the same compound, the POTASSIUM [4] was 6.21 MEQ/L, the SODIUM [4] was 143.47 MEQ/L and the “TOTAL BILIRUBIN” value [4] was 0.23 mg/dL. The “TOTAL PROTEIN” value [4] was 5.93 G/DL and the “URIC ACID” value [4] was 1.53 mg/dL.
